Experimental data from patent US11178870B2 (priority 2017, dated 2021).

How the values were obtained:
Assay type in all cases: in vivo
[1] = tested on: Botrytis cinerea; experiment: Test Example B: Gray mold on tomato; conditions: Gray mold on tomato, read-out: Test B control value
[2] = tested on: Puccinia recondita; experiment: Test Example E: Brown rust on wheat; conditions: Brown rust on wheat, read-out: Test E control value
[3] = tested on: Phytophthora infestans; experiment: whole plant or invertebrate; conditions: in Solanum lycopersicum, read-out: Test F control value
[4] = tested on: Plasmopara viticola; experiment: Test Example G: Downy mildew on vine; conditions: Downy mildew on vine, 250 ppm sprayed, 2.5 ml/pot, 7 to 10 days after inoculation, read-out: Test G control value
[5] = tested on: Alternaia brassicicola; experiment: Test Example C: Alternaria sooty spot on cabbage; conditions: Brassica oleracea; Alternaria sooty spot on cabbage; read-out: Test C control value
[6] = tested on: Blumeria graminis f. sp. hordei; experiment: Test Example D: Powdery mildew on barley; conditions: Powdery mildew on barley, read-out: Test D control value
[7] = tested on: Magnaporthe grisea; experiment: whole plant or invertebrate; conditions: Pyricularia oryzae, in Oryza sativa, read-out: Test A control value

CCN1C(=O)CCC(c2cccs2)=C1c1c(F)cccc1F [compound 2, 6-(2,6-difluorophenyl)-1-ethyl-5-(thiophen-2-yl)-3,4-dihydropyridin-2(1H)-one]
pest or weed control at 250 µg/mL [1]: < 50% | pest or weed control at 250 µg/mL [2]: > 50% | pest or weed control at 250 µg/mL [3]: < 50% | pest or weed control at 250 ppm [4]: > 50% | pest or weed control at 250 µg/mL [5]: < 50% | pest or weed control at 250 µg/mL [6]: > 50% | pest or weed control at 250 µg/mL [7]: > 50%

CCn1c(-c2c(F)cc(F)cc2F)c(-n2ncnc2Br)cc(Cl)c1=O [compound 35, 5-(5-bromo-1H-1,2,4-triazol-1-yl)-3-chloro-1-ethyl-6-(2,4,6-trifluorophenyl)pyridin-2(1H)-one]
pest or weed control at 250 µg/mL [1]: > 50% | pest or weed control at 250 µg/mL [2]: > 50% | pest or weed control at 250 µg/mL [3]: < 50% | pest or weed control at 250 ppm [4]: < 50% | pest or weed control at 250 µg/mL [5]: > 50% | pest or weed control at 250 µg/mL [6]: > 50% | pest or weed control at 250 µg/mL [7]: > 50%

CCn1c(-c2c(F)cc(F)cc2F)c(-n2cncn2)cc(Cl)c1=O [compound 34, 3-chloro-1-ethyl-5-(1H-1,2,4-triazol-1-yl)-6-(2,4,6-trifluorophenyl)pyridin-2(1H)-one]
pest or weed control at 250 µg/mL [1]: > 50% | pest or weed control at 250 µg/mL [2]: > 50% | pest or weed control at 250 µg/mL [3]: < 50% | pest or weed control at 250 ppm [4]: < 50% | pest or weed control at 250 µg/mL [5]: > 50% | pest or weed control at 250 µg/mL [6]: > 50% | pest or weed control at 250 µg/mL [7]: > 50%

CCn1c(-c2c(F)cccc2F)c(-c2ccc(Cl)s2)cc(Cl)c1=O [compound 7, 3-chloro-5-(5-chlorothiophen-2-yl)-6-(2,6-difluorophenyl)-1-ethylpyridin-2(1H)-one]
pest or weed control at 250 µg/mL [1]: > 50% | pest or weed control at 250 µg/mL [2]: > 50% | pest or weed control at 250 µg/mL [3]: < 50% | pest or weed control at 250 ppm [4]: < 50% | pest or weed control at 250 µg/mL [5]: > 50% | pest or weed control at 250 µg/mL [6]: < 50% | pest or weed control at 250 µg/mL [7]: > 50%

CCn1c(-c2c(F)cc(F)cc2F)c(-n2cc(Cl)cn2)cc(Cl)c1=O [compound 40, 3-chloro-5-(4-chloro-1H-pyrazol-1-yl)-1-ethyl-6-(2,4,6-trifluoro-phenyl)pyridin-2(1H)-one]
pest or weed control at 250 µg/mL [1]: > 50% | pest or weed control at 250 µg/mL [2]: > 50% | pest or weed control at 250 µg/mL [3]: < 50% | pest or weed control at 250 ppm [4]: < 50% | pest or weed control at 250 µg/mL [5]: > 50% | pest or weed control at 250 µg/mL [6]: > 50% | pest or weed control at 250 µg/mL [7]: > 50%

CCn1c(-c2c(F)cccc2F)c(-c2ocnc2C)cc(Cl)c1=O [compound 43, 3-chloro-6-(2,6-difluorophenyl)-1-ethyl-5-(4-methyloxazol-5-yl)pyridin-2(1H)-one]
pest or weed control at 250 µg/mL [1]: > 50% | pest or weed control at 250 µg/mL [2]: > 50% | pest or weed control at 250 µg/mL [3]: < 50% | pest or weed control at 250 ppm [4]: < 50% | pest or weed control at 250 µg/mL [5]: > 50% | pest or weed control at 250 µg/mL [6]: > 50% | pest or weed control at 250 µg/mL [7]: > 50%

CCn1c(-c2c(F)cc(F)cc2F)c(-c2ocnc2Cl)cc(Cl)c1=O [compound 112, 3-chloro-5-(4-chlorooxazol-5-yl)-1-ethyl-6-(2,4,6-trifluoro-phenyl)pyridin-2(1H)-one]
pest or weed control at 250 µg/mL [1]: > 50% | pest or weed control at 250 µg/mL [2]: > 50% | pest or weed control at 250 µg/mL [3]: < 50% | pest or weed control at 250 ppm [4]: > 50% | pest or weed control at 250 µg/mL [5]: > 50% | pest or weed control at 250 µg/mL [6]: > 50% | pest or weed control at 250 µg/mL [7]: > 50%

CCn1c(-c2c(F)cc(OC)cc2F)c(-c2c(Br)cnn2C)cc(Cl)c1=O [compound 23, 5-(4-bromo-1-methyl-1H-pyrazol-5-yl)-3-chloro-6-(2,6-difluoro-4-methoxyphenyl)-1-ethylpyridin-2(1H)-one]
pest or weed control at 250 µg/mL [1]: > 50% | pest or weed control at 250 µg/mL [2]: > 50% | pest or weed control at 250 µg/mL [3]: < 50% | pest or weed control at 250 ppm [4]: < 50% | pest or weed control at 250 µg/mL [5]: > 50% | pest or weed control at 250 µg/mL [6]: > 50% | pest or weed control at 250 µg/mL [7]: > 50%

CCn1c(-c2c(F)cc(F)cc2F)c(-n2cnc(Cl)c2Cl)cc(Cl)c1=O [compound 138, 3-chloro-5-(4,5-dichloro-1H-imidazol-1-yl)-1-ethyl-6-(2,4,6-trifluorophenyl)pyridin-2(1H)-one]
pest or weed control at 250 µg/mL [1]: > 50% | pest or weed control at 250 µg/mL [2]: > 50% | pest or weed control at 250 µg/mL [3]: < 50% | pest or weed control at 250 ppm [4]: < 50% | pest or weed control at 250 µg/mL [5]: > 50% | pest or weed control at 250 µg/mL [6]: > 50% | pest or weed control at 250 µg/mL [7]: > 50%

CCn1c(-c2c(F)cccc2F)c(-c2cccs2)ccc1=O [compound 5, 6-(2,6-difluorophenyl)-1-ethyl-5-(thiophen-2-yl)pyridin-2(1H)-one]
pest or weed control at 250 µg/mL [1]: > 50% | pest or weed control at 250 µg/mL [2]: > 50% | pest or weed control at 250 µg/mL [3]: > 50% | pest or weed control at 250 ppm [4]: > 50% | pest or weed control at 250 µg/mL [5]: > 50% | pest or weed control at 250 µg/mL [6]: > 50% | pest or weed control at 250 µg/mL [7]: > 50%

CCn1c(-c2c(F)cc(OC)cc2F)c(-n2cc(Br)cn2)cc(Cl)c1=O [compound 72, 5-(4-bromo-1H-pyrazol-1-yl)-3-chloro-6-(2,6-difluoro-4-methoxyphenyl)-1-ethylpyridin-2(1H)-one]
pest or weed control at 250 µg/mL [1]: > 50% | pest or weed control at 250 µg/mL [2]: > 50% | pest or weed control at 250 µg/mL [3]: < 50% | pest or weed control at 250 ppm [4]: < 50% | pest or weed control at 250 µg/mL [5]: > 50% | pest or weed control at 250 µg/mL [6]: > 50% | pest or weed control at 250 µg/mL [7]: > 50%

CCn1c(-c2c(F)cccc2F)c(-c2ccc(Cl)s2)ccc1=O [compound 6, 5-(5-chlorothiophen-2-yl)-6-(2,6-difluorophenyl)-1-ethylpyridin-2(1H)-one]
pest or weed control at 250 µg/mL [1]: > 50% | pest or weed control at 250 µg/mL [2]: > 50% | pest or weed control at 250 µg/mL [3]: < 50% | pest or weed control at 250 ppm [4]: < 50% | pest or weed control at 250 µg/mL [5]: > 50% | pest or weed control at 250 µg/mL [6]: < 50% | pest or weed control at 250 µg/mL [7]: > 50%

CCn1c(-c2c(F)cc(F)cc2F)c(-n2cccn2)ccc1=O [compound 26, 1-ethyl-5-(1H-pyrazol-1-yl)-6-(2,4,6-trifluorophenyl)pyridin-2(1H)-one]
pest or weed control at 250 µg/mL [1]: > 50% | pest or weed control at 250 µg/mL [2]: > 50% | pest or weed control at 250 µg/mL [3]: < 50% | pest or weed control at 250 ppm [4]: < 50% | pest or weed control at 250 µg/mL [5]: > 50% | pest or weed control at 250 µg/mL [6]: > 50% | pest or weed control at 250 µg/mL [7]: > 50%

CCn1c(-c2c(F)cc(F)cc2F)c(-n2cc(Cl)cn2)cc(Br)c1=O [compound 71, 5-(4-chloro-1H-pyrazol-1-yl)-1-ethyl-3-bromo-6-(2,4,6-trifluoro-phenyl)pyridin-2(1H)-one]
pest or weed control at 250 µg/mL [1]: > 50% | pest or weed control at 250 µg/mL [2]: > 50% | pest or weed control at 250 µg/mL [3]: < 50% | pest or weed control at 250 ppm [4]: < 50% | pest or weed control at 250 µg/mL [5]: > 50% | pest or weed control at 250 µg/mL [6]: > 50% | pest or weed control at 250 µg/mL [7]: > 50%

CCn1c(-c2c(F)cc(F)cc2F)c(-n2cc(Cl)cn2)cc(I)c1=O [compound 140, 5-(4-chloro-1H-pyrazol-1-yl)-1-ethyl-3-iodo-6-(2,4,6-trifluoro-phenyl)pyridin-2(1H)-one]
pest or weed control at 250 µg/mL [1]: > 50% | pest or weed control at 250 µg/mL [2]: > 50% | pest or weed control at 250 µg/mL [3]: < 50% | pest or weed control at 250 ppm [4]: < 50% | pest or weed control at 250 µg/mL [5]: > 50% | pest or weed control at 250 µg/mL [6]: > 50% | pest or weed control at 250 µg/mL [7]: < 50%

CCN1C(=O)CCC(n2cccn2)=C1c1c(F)cc(F)cc1F [compound 25, 1-ethyl-5-(1H-pyrazol-1-yl)-6-(2,4,6-trifluorophenyl)-3,4-dihydropyridin-2(1H)-one]
pest or weed control at 250 µg/mL [1]: < 50% | pest or weed control at 250 µg/mL [2]: < 50% | pest or weed control at 250 µg/mL [3]: < 50% | pest or weed control at 250 ppm [4]: < 50% | pest or weed control at 250 µg/mL [5]: > 50% | pest or weed control at 250 µg/mL [6]: > 50% | pest or weed control at 250 µg/mL [7]: < 50%

CCn1c(-c2c(F)cc(F)cc2F)c(C2OCCCO2)cc(Cl)c1=O [compound 8, 3-chloro-5-(1,3-dioxan-2-yl)-1-ethyl-6-(2,4,6-trifluorophenyl)-pyridin-2(1H)-one]
pest or weed control at 250 µg/mL [1]: > 50% | pest or weed control at 250 µg/mL [2]: < 50% | pest or weed control at 250 µg/mL [3]: < 50% | pest or weed control at 250 ppm [4]: > 50% | pest or weed control at 250 µg/mL [5]: > 50% | pest or weed control at 250 µg/mL [6]: < 50% | pest or weed control at 250 µg/mL [7]: > 50%

CCn1c(-c2c(F)cc(F)cc2F)c(-n2cc(Cl)cn2)ccc1=O [compound 27, 5-(4-chloro-1H-pyrazol-1-yl)-1-ethyl-6-(2,4,6-trifluorophenyl)-pyridin-2(1H)-one]
pest or weed control at 250 µg/mL [1]: > 50% | pest or weed control at 250 µg/mL [2]: > 50% | pest or weed control at 250 µg/mL [3]: < 50% | pest or weed control at 250 ppm [4]: < 50% | pest or weed control at 250 µg/mL [5]: > 50% | pest or weed control at 250 µg/mL [6]: > 50% | pest or weed control at 250 µg/mL [7]: < 50%

CCn1c(-c2c(F)cc(F)cc2F)c(-c2ccnn2C)cc(Cl)c1=O [compound 20, 3-chloro-1-ethyl-5-(1-methyl-1H-pyrazol-5-yl)-6-(2,4,6-trifluorophenyl)pyridin-2(1H)-one]
pest or weed control at 250 µg/mL [1]: > 50% | pest or weed control at 250 µg/mL [2]: > 50% | pest or weed control at 250 µg/mL [3]: < 50% | pest or weed control at 250 ppm [4]: < 50% | pest or weed control at 250 µg/mL [5]: > 50% | pest or weed control at 250 µg/mL [6]: > 50% | pest or weed control at 250 µg/mL [7]: > 50%
